The values that follow come from PubChem BioAssay (NCI).

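Growth conditions: 96-well plates. Treatment: test compound, 48 hours, 5 concentrations. Analysis: linear interpolation between bracketing concentrations; unreached endpoints set to highest concentration. The concentration for 50% growth inhibition is given as GI50. At the TGI there is no net growth.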

Test systems include EKVX NSCLC; COLO 205 colon; SF-539 CNS; NCI/ADR-RES ovarian; RPMI-8226 leukemia; SF-295 CNS; IGROV1 ovarian; T-47D breast; OVCAR-4 ovarian; MDA-MB-231 breast; NCI-H226 lung; 786-0 renal; A549 NSCLC; BT-549 breast; LOX IMVI melanoma.
Assay in all cases: DTP human tumour cell line panel, 48 h

Consider `COc1ccc(CN=C2Nc3ccncc3S(=O)(=O)N2c2ccccc2)cc1`, for which the total growth inhibition concentration (TGI) with EKVX NSCLC was > 100 µM; in the test on COLO 205 colon, > 100 µM; with SF-539 CNS, 33.9 µM; in the test with NCI/ADR-RES ovarian, > 100 µM; with RPMI-8226 leukemia it was 42.3 µM; with SF-295 CNS, > 100 µM. The total growth inhibition concentration (TGI) in the test on IGROV1 ovarian, with T-47D breast, with OVCAR-4 ovarian, with MDA-MB-231 breast, with NCI-H226 lung and with 786-0 renal was > 100 µM throughout. In addition, the concentration for total growth inhibition (TGI) with A549 NSCLC is > 100 µM; in the test with BT-549 breast, 89.4 µM; in the test with LOX IMVI melanoma it was > 100 µM.

In the case of `CC1(C)OC[C@@]2([C@@H]3CC[C@@H](C3)C2(C)C)N1O`, the TGI in the test with EKVX NSCLC, in the test with COLO 205 colon, with SF-539 CNS, in the test with NCI/ADR-RES ovarian, with RPMI-8226 leukemia and in the test with SF-295 CNS was > 100 µM throughout. In addition, the concentration for total growth inhibition (TGI) in the test on IGROV1 ovarian, in the test on T-47D breast, in the test on OVCAR-4 ovarian, with MDA-MB-231 breast, in the test with NCI-H226 lung and in the test with 786-0 renal was > 100 µM throughout. Also, the total growth inhibition concentration (TGI) in the test with A549 NSCLC, in the test with BT-549 breast and in the test on LOX IMVI melanoma was > 100 µM throughout.

As to `O=S(=O)(O)Nc1ccc(-c2nc3ccccc3s2)cc1Cl`, the TGI with EKVX NSCLC, in the test on COLO 205 colon, in the test with SF-539 CNS, with NCI/ADR-RES ovarian, in the test on RPMI-8226 leukemia and with SF-295 CNS was > 100 µM each time. Also, the TGI in the test on IGROV1 ovarian, in the test with T-47D breast, in the test with OVCAR-4 ovarian, in the test with MDA-MB-231 breast, with NCI-H226 lung and with 786-0 renal was > 100 µM throughout. Besides, the total growth inhibition concentration (TGI) with A549 NSCLC, with BT-549 breast and in the test with LOX IMVI melanoma was > 100 µM in each case.

For the compound `O=[N+]([O-])C(=C/C1CCCCC1)/C(=C\C1CCCCC1)[N+](=O)[O-]`, the total growth inhibition concentration (TGI) turned out to be 24.9 µM in the test with EKVX NSCLC; 9.29 µM with COLO 205 colon; 9.4 µM in the test on SF-539 CNS; 7.29 µM in the test on NCI/ADR-RES ovarian; 5.4 µM with RPMI-8226 leukemia; 32.8 µM in the test on SF-295 CNS. The concentration for total growth inhibition (TGI) worked out at 20.6 µM in the test with IGROV1 ovarian; 38 µM with T-47D breast; 40.1 µM in the test with OVCAR-4 ovarian; 8.98 µM in the test with MDA-MB-231 breast; 17.9 µM in the test on NCI-H226 lung; 4.11 µM in the test on 786-0 renal. In addition, the TGI in the test on A549 NSCLC was determined as 49 µM; in the test on BT-549 breast it was 12.5 µM; in the test with LOX IMVI melanoma, 4.94 µM.

In the case of `CC1(C)OC2CN(C(=O)OCc3ccccc3)C(CO)C2O1` (stereo unspecified), the concentration for total growth inhibition (TGI) in the test with EKVX NSCLC, with COLO 205 colon, in the test on SF-539 CNS, in the test with NCI/ADR-RES ovarian, in the test on RPMI-8226 leukemia and with SF-295 CNS was > 100 µM throughout. The TGI with IGROV1 ovarian, in the test on T-47D breast, in the test with OVCAR-4 ovarian, with MDA-MB-231 breast, in the test with NCI-H226 lung and in the test on 786-0 renal was > 100 µM each time. Moreover, the TGI in the test with A549 NSCLC, with BT-549 breast and in the test with LOX IMVI melanoma was > 100 µM each time.

With `O=C1CNc2cc(N3CCN(c4cccc(C(F)(F)F)c4)CC3)ccc2N1`, the total growth inhibition concentration (TGI) was > 100 µM with EKVX NSCLC; > 91.7 µM in the test with COLO 205 colon; > 100 µM in the test with SF-539 CNS; > 91.1 µM with NCI/ADR-RES ovarian; > 67.5 µM in the test on RPMI-8226 leukemia; > 92.3 µM in the test on SF-295 CNS. Moreover, the TGI in the test on IGROV1 ovarian, in the test on T-47D breast, with OVCAR-4 ovarian, with MDA-MB-231 breast, in the test on NCI-H226 lung and in the test with 786-0 renal was > 100 µM in each case. For the same compound, the TGI in the test on A549 NSCLC, in the test on BT-549 breast and with LOX IMVI melanoma was > 100 µM in each case.

`Cc1ccc(N2C(=O)CC(=O)N(NC(=O)C(C)Oc3ccccc3C)C2=S)cc1` (stereo unspecified): the TGI with EKVX NSCLC, in the test with COLO 205 colon, in the test on SF-539 CNS, with NCI/ADR-RES ovarian, in the test on RPMI-8226 leukemia and in the test with SF-295 CNS was > 100 µM each time. In addition, the concentration for total growth inhibition (TGI) in the test on IGROV1 ovarian, in the test with T-47D breast, in the test on OVCAR-4 ovarian, in the test with MDA-MB-231 breast, with NCI-H226 lung and with 786-0 renal was > 100 µM throughout. Further, the TGI in the test with A549 NSCLC, with BT-549 breast and with LOX IMVI melanoma was > 100 µM throughout.

As to `CC(C)(N=NC(C)(C)C1=NCCN1)C1=NCCN1`, the total growth inhibition concentration (TGI) in the test on EKVX NSCLC, with COLO 205 colon, with SF-539 CNS, with NCI/ADR-RES ovarian, in the test on RPMI-8226 leukemia and in the test on SF-295 CNS was > 100 µM in each case. The TGI in the test with IGROV1 ovarian, in the test with T-47D breast, with OVCAR-4 ovarian, in the test on MDA-MB-231 breast, in the test with NCI-H226 lung and in the test on 786-0 renal was > 100 µM throughout. Also, the concentration for total growth inhibition (TGI) in the test with A549 NSCLC, with BT-549 breast and in the test on LOX IMVI melanoma was > 100 µM each time. In addition, the GI50 in the test on RPMI-8226 leukemia is > 100 µM.

Regarding `COc1ccc(C2c3cc4c(cc3OC(N3CCOCC3)C2C)OCO4)c(OC)c1` (stereo unspecified), the TGI in the test with EKVX NSCLC is > 85.3 µM; with COLO 205 colon it was > 57.6 µM; in the test with SF-539 CNS it was 9.64 µM; in the test on NCI/ADR-RES ovarian, 9.68 µM; in the test with RPMI-8226 leukemia, 19.9 µM; in the test on SF-295 CNS, 16.3 µM. Also, the TGI with IGROV1 ovarian was > 100 µM; in the test on T-47D breast, > 54.8 µM; in the test with OVCAR-4 ovarian it was > 100 µM; in the test with MDA-MB-231 breast, 32.5 µM; in the test with NCI-H226 lung, 14.4 µM; with 786-0 renal it was 41.1 µM. Also, the figures for the TGI in the test on A549 NSCLC, with BT-549 breast and in the test with LOX IMVI melanoma were 58 µM, 87.7 µM and 23.8 µM, respectively.
